Active and inactive are the calls of the source.
How the values were obtained:
[1] = biological target: T1, Neuropeptide Y receptor type 2 (Homo sapiens, UniProt P49146); assay type: functional, cell-based;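 also: HEK293 cells expressing the receptor and a CNG channel; stimulus was NPY near EC95 followed by isoproterenol to raise cAMP; antagonist potency measured as restoring cAMP signal that NPY suppresses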
T1 sequence (P49146 whole entry): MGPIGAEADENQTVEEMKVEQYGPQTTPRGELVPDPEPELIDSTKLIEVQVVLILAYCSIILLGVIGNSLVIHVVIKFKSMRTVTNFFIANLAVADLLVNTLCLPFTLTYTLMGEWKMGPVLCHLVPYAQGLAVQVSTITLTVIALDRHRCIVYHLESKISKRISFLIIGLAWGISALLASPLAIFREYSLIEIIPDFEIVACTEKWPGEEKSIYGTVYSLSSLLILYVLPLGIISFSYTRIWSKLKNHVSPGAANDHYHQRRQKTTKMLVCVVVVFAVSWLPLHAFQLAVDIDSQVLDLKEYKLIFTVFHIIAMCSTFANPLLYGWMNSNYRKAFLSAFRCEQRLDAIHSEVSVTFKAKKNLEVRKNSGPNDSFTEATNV

[2] = biological target: T2, Cysteine protease ATG4B (Homo sapiens, UniProt Q9Y4P1); assay: ATG4B protease inhibitors, dose response, biochemical, fluorescence, set 2 (AID 588584); assay type: functional
T2 sequence (Q9Y4P1 whole entry): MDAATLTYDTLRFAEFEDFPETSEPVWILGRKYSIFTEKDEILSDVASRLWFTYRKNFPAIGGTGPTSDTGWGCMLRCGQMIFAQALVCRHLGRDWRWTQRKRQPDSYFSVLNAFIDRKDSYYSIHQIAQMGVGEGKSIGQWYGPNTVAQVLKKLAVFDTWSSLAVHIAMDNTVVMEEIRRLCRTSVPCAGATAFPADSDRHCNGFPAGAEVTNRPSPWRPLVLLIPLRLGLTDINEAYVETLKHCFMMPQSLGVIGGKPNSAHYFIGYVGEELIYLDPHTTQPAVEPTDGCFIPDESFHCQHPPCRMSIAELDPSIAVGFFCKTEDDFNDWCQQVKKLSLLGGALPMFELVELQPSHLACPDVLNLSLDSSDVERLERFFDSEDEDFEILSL

[3] = biological target: T3, Neuropeptide Y receptor type 1 (Homo sapiens, UniProt P25929); assay type: functional;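 also: HEK293 cells with a CNG channel challenged with NPY then isoproterenol; potency as antagonist that reverses NPY suppression of cAMP signal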
T3 sequence (P25929 whole entry): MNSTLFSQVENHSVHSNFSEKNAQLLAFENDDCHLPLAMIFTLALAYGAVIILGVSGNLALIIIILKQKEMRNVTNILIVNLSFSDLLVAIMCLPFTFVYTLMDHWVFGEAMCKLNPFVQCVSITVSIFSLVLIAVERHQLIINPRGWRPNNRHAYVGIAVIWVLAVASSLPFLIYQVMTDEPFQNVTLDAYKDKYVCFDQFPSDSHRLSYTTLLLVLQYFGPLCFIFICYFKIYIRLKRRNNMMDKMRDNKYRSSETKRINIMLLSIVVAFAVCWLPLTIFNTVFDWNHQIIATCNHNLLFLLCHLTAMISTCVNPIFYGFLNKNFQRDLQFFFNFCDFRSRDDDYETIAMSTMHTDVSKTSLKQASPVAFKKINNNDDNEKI

[4] = biological target: Phospholipase A2 (Homo sapiens, UniProt P04054); assay: PLA2 enzyme inhibitors, dose response, counter-screen for ATG4B inhibitor project, biochemical, set 2 (AID 588586); assay type: functional
Chain of Phospholipase A2 (P04054 whole entry): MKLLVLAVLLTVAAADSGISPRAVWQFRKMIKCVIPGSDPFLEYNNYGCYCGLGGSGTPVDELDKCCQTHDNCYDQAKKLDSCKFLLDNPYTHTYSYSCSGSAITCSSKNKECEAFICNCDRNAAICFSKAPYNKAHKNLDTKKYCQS

[5] = biological target: T4, Small ubiquitin-related modifier 1 (Homo sapiens, UniProt P63165); assay: inhibitors of SUMO1 peptide binding, dose response, biochemical, fluorescence polarization, uHTS hits (AID 624382); assay type: functional; conditions: read-out: IC50_Mean
T4 sequence (P63165 whole entry): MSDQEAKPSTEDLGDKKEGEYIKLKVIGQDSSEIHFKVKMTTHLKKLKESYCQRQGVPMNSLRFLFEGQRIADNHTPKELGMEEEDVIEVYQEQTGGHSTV

[6] = biological target: T5, Apoptotic protease-activating factor 1 (Homo sapiens, UniProt O14727); assay: activation of Apaf-1 mediated apoptosis – fluorescent, uHTS hits, dose response (AID 588554); assay type: functional
T5 sequence (O14727 whole entry): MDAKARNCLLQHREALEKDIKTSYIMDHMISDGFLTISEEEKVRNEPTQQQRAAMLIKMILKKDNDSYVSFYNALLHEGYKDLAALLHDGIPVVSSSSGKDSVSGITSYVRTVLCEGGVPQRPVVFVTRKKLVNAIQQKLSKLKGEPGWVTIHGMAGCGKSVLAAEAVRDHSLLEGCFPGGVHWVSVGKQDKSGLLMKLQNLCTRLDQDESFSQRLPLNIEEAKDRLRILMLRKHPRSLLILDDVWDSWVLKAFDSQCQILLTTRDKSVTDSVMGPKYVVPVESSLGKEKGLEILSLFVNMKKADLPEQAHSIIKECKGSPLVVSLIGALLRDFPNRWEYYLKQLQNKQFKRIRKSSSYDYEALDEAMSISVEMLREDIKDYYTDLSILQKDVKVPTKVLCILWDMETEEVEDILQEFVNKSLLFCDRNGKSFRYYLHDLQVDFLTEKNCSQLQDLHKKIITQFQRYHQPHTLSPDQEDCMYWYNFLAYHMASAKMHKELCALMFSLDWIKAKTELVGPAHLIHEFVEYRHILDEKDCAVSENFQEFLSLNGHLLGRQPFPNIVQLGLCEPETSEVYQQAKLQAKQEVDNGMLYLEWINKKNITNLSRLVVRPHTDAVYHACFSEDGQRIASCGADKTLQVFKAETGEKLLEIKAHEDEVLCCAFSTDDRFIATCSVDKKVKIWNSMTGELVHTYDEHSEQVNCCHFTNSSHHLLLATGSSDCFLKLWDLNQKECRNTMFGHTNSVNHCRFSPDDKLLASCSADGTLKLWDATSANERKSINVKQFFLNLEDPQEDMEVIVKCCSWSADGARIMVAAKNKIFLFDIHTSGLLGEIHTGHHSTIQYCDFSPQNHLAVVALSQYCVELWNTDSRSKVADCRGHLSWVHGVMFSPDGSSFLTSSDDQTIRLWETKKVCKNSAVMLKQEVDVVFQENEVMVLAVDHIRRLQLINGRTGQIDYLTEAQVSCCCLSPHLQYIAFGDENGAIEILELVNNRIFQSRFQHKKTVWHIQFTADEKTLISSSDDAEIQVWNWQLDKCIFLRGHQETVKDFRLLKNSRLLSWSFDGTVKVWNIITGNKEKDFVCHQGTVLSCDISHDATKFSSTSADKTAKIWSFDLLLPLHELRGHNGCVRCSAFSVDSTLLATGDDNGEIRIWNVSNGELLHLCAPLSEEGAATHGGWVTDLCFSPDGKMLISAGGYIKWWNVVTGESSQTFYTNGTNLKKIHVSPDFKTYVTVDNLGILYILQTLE

[7] = biological target: T5, Apoptotic protease-activating factor 1; assay: SAR analysis of small molecule Activators of Apaf-1 in a Fluorescent assay.; assay type: functional; conditions: read-out: EC50_Mean
[8] = biological target: T6, Voltage-gated N-type calcium channel alpha-1B subunit/Amyloid beta A4 precursor protein-binding family A member 1 (Homo sapiens, UniProt Q00975+Q02410); assay type: protein assay
T6 sequence (Q00975 whole entry): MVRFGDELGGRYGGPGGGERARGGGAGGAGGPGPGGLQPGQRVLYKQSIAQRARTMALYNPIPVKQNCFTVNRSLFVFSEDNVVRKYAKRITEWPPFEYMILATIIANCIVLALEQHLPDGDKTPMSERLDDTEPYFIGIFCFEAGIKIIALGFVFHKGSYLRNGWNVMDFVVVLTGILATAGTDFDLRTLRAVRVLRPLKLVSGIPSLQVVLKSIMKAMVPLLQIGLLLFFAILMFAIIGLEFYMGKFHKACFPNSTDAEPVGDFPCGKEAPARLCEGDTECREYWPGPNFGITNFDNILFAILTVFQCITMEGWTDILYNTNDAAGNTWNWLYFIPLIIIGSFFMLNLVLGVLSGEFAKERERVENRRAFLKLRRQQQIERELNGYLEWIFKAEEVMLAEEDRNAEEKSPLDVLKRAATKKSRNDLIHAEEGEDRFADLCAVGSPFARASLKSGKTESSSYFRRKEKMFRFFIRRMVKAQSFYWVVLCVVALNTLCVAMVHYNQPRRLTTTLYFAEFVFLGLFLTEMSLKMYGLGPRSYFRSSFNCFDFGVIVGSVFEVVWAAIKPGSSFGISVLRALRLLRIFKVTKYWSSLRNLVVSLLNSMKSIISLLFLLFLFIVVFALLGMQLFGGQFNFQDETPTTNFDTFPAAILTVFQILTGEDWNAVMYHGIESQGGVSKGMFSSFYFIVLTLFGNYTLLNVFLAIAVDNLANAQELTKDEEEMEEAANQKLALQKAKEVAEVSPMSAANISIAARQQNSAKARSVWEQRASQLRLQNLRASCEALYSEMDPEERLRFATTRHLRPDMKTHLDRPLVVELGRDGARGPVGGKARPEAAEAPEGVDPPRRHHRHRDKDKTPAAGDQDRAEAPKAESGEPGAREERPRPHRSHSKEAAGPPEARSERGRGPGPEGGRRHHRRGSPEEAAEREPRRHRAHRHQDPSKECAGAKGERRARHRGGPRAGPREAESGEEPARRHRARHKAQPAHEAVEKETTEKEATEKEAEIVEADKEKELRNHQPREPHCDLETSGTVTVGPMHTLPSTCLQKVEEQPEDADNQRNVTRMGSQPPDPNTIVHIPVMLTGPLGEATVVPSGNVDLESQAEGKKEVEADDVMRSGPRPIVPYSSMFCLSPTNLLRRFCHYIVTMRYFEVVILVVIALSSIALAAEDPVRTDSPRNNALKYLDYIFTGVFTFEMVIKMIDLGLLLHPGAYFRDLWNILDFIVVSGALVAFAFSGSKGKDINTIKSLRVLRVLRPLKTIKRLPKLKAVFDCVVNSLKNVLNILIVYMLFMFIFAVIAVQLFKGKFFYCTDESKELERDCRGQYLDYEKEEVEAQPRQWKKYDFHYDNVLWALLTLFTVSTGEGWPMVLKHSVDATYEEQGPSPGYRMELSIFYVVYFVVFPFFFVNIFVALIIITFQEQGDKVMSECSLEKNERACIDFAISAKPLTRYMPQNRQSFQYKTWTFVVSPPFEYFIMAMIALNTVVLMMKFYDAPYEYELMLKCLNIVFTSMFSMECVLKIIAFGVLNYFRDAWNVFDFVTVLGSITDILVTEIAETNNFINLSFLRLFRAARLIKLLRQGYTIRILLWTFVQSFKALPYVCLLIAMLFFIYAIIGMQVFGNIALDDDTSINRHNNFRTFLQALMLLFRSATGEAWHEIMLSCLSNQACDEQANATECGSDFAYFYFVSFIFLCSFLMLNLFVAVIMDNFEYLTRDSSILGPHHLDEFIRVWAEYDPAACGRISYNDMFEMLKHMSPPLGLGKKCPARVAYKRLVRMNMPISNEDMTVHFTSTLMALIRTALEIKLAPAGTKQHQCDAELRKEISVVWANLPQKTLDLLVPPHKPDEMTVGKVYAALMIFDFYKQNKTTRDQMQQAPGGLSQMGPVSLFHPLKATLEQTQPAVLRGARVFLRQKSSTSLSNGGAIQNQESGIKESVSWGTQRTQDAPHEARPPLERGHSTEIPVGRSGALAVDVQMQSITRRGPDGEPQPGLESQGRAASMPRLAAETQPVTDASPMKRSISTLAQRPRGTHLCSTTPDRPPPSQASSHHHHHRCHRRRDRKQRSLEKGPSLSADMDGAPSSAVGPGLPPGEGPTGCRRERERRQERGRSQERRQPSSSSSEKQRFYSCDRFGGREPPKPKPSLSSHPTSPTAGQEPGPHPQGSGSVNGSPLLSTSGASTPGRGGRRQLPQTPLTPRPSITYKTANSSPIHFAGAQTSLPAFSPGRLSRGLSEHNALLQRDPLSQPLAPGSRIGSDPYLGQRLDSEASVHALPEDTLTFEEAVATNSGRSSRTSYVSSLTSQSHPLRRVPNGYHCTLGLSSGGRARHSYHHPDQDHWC
T6 sequence (Q02410 whole entry): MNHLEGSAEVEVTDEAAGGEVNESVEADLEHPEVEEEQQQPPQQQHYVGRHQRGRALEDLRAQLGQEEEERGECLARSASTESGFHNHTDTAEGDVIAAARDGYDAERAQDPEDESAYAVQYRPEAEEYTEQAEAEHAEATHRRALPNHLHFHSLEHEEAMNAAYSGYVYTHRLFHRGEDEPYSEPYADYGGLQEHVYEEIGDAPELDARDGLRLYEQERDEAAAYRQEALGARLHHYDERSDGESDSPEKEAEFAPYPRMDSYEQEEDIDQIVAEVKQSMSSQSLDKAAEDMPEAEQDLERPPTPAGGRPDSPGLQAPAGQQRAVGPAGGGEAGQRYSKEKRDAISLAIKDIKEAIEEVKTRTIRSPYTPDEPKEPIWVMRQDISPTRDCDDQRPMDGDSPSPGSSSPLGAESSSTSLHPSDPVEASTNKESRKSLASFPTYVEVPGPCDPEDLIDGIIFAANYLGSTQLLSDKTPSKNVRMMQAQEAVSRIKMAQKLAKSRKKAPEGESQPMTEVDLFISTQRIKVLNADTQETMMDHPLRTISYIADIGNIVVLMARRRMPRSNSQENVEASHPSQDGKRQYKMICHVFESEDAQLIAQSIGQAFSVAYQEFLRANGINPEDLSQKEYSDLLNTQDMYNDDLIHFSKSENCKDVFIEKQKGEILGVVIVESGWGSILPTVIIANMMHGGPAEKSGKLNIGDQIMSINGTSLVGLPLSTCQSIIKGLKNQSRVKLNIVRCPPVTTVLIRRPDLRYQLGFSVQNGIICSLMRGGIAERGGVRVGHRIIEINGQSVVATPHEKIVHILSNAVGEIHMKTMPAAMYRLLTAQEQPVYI

[9] = biological target: T4, Small ubiquitin-related modifier 1; assay: inhibitors of SUMO1 partner interactions, dose response, biochemical, FRET (AID 624383); assay type: functional; conditions: read-out: IC50_Mean
[10] = biological target: T6, Voltage-gated N-type calcium channel alpha-1B subunit/Amyloid beta A4 precursor protein-binding family A member 1; assay type: protein assay; remark: listed apart in the source
[11] = tested on: BJ; assay: cytotoxicity toward BJ-TERT fibroblasts, dose response, cell-based, RAS-independent, luminescence (AID 1933); assay type: functional; conditions: Homo sapiens
[12] = cytotoxicity toward DRD oncogenic fibroblasts, dose response, cell-based, non-viral oncogenic, luminescence (AID 1934); assay type: functional; conditions: Homo sapiens
[13] = biological target: T7, Microphthalmia-associated transcription factor (Homo sapiens, UniProt O75030); assay: TRPM1 promoter luciferase signal decrease, dose response, MITF inhibitor project, cell-based, SK-MEL-5, cherry-picked, set 3 (AID 493073); assay type: functional
T7 sequence (O75030 whole entry): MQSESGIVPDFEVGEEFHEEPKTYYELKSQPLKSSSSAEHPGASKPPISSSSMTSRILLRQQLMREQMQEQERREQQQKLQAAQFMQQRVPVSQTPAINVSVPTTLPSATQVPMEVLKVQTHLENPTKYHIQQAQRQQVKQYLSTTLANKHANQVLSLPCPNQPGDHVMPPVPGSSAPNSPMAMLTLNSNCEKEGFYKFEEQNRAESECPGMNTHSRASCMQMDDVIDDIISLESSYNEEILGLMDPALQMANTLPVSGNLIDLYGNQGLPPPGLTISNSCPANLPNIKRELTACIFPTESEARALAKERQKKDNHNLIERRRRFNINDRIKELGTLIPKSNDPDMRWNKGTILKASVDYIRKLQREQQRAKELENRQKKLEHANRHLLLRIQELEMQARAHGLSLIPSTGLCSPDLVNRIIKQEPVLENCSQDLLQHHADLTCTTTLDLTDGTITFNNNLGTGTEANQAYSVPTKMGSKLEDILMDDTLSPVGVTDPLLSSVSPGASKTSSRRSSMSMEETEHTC

[14] = Shn3 3'UTR reporter inhibitors, dose response, cell-based, Clone20 osteoblasts, firefly luciferase, cherry-picked (AID 624132); assay type: functional;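 also: firefly luciferase luminescence from reporter carrying the Shn3 3'UTR in osteoblasts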
[15] = HepG2 cell cytotoxicity, dose response, cytotoxicity control for Shn3 inhibitor project, CellTiter-Glo, cherry-picked (AID 624134); assay type: functional, cell-based
[16] = tested on: A-375; assay: MITF: Counter assay: A375 proliferation Measured in Cell-Based System Using Plate Reader - 2084-03_Inhibitor_Dose_DryPowder_Activity. [Related pubchem assays (depositor defined):AID488944]; assay type: functional; conditions: Homo sapiens
[17] = tested on: BJ; assay: cells; assay type: functional, cell-based; conditions: Homo sapiens
[18] = control 3'UTR Renilla luciferase suppression, dose response, counter-screen for Shn3 inhibitor project, cell-based, Clone20-Shn3RL, cherry-picked (AID 624133); assay type: functional
[19] = tested on: BJ; assay: cytotoxicity toward BJ-TERT-LT-ST fibroblasts, dose response, cell-based, RAS-independent, luminescence (AID 1935); assay type: functional; conditions: Homo sapiens;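 also: BJ fibroblasts immortalized with TERT plus LT and ST oncogenes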
[20] = biological target: Glyceraldehyde-3-phosphate dehydrogenase (Homo sapiens, UniProt P04406)
Chain of Glyceraldehyde-3-phosphate dehydrogenase (P04406 whole entry): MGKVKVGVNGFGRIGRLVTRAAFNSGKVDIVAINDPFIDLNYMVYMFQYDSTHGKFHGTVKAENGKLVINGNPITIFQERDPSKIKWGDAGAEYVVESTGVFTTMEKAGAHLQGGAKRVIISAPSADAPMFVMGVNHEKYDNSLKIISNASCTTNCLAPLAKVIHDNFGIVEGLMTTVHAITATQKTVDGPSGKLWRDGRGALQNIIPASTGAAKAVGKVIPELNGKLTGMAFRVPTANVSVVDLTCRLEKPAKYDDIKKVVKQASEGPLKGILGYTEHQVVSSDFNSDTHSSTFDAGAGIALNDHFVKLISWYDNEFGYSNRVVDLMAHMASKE

[21] = biological target: T8, Tyrosine-protein phosphatase non-receptor type 7 (Homo sapiens, UniProt P35236); assay type: functional
T8 sequence (P35236 whole entry): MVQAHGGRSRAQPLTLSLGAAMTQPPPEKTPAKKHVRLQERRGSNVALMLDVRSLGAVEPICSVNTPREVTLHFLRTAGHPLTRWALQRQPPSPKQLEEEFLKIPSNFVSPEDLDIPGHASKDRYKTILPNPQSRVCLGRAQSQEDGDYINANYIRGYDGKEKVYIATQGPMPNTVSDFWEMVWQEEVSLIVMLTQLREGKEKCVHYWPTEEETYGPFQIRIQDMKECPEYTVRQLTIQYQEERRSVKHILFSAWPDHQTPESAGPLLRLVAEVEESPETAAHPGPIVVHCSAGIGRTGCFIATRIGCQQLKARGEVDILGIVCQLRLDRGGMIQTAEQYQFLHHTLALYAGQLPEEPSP

[22] = biological target: T9, Dual specificity protein phosphatase 6 (Rattus norvegicus, UniProt Q64346)
T9 sequence (Q64346 whole entry): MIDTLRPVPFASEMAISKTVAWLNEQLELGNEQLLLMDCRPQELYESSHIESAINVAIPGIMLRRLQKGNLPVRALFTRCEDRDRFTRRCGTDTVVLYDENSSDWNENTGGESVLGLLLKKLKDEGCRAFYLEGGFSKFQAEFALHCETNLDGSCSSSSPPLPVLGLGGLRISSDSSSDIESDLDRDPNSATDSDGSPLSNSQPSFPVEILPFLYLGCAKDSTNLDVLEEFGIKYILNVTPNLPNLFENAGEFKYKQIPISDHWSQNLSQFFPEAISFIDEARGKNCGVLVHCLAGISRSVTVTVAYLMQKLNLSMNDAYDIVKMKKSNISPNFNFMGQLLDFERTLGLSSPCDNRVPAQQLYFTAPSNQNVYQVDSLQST

[23] = biological target: T9, Dual specificity protein phosphatase 6; assay type: functional
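For EC50 Mean in this document: caspase-3 cleavage of fluorogenic Rh110 DEVD substrate downstream of apoptosome activation.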

Cc1ccccc1C(=O)c1cccn1CC(=O)NCCN1CCN(c2cccc(C)c2C)CC1
IC50 [1]: 13.2 µM (not active)
IC50 [2]: 25.3 µM (inactive)
IC50 [3]: 6.43 µM (active)
IC50 [4]: 17.7 µM (active)

O=C(Nc1nc2ccsc2c(=O)s1)c1ccco1
IC50 [5]: > 66.6 µM (inactive)
EC50 [6]: 22.8 µM (active)
EC50 [7]: 59 µM (active)
IC50 [8]: > 50 µM (inactive)
IC50 [9]: 15.9 µM (active)
IC50 [10]: 11.8 µM (active)

Cc1cccc(N2C(=O)NC(=O)/C(=C\C=C\c3ccco3)C2=O)c1
EC50 [11]: 4.02 µM (active)
EC50 [12]: 3.62 µM (active)
AC50 [13]: 5.75 µM (active)
AC50 [14]: 3.06 µM (active)
AC50 [15]: 25.6 µM (active)
AC50 [16]: 28.4 µM (active)
EC50 [17]: 11.3 µM (active)
AC50 [18]: 26.4 µM (active)
EC50 [19]: 4.93 µM (inconclusive)

CCn1c(SCC(=O)O)nc2sc3c(c2c1=O)CCCC3
IC50 [20]: > 100 µM (not active)
IC50 [21]: > 100 µM (not active)
IC50 [22]: > 100 µM (inactive)
IC50 [23]: > 100 µM (inactive)
